# Experimental data taken from paper PMC5557014 (Biochemical pharmacology, 2017).
# Read-outs that look alike come from different tables or passages of the source.
# Assays:
# HIV-1 RT L100I = conditions: Poly rA.dT [^3H]dTTP
# [1] = molecular target: T1, cellular DNA polymerase α (Homo sapiens, UniProt P09884); experiment: Cellular DNA polymerase α assay; format: biochemical; conditions: read-out: IC50 α DNA pol; calf thymus DNA, [^3H]dGTP
# T1 sequence (P09884 1-1462): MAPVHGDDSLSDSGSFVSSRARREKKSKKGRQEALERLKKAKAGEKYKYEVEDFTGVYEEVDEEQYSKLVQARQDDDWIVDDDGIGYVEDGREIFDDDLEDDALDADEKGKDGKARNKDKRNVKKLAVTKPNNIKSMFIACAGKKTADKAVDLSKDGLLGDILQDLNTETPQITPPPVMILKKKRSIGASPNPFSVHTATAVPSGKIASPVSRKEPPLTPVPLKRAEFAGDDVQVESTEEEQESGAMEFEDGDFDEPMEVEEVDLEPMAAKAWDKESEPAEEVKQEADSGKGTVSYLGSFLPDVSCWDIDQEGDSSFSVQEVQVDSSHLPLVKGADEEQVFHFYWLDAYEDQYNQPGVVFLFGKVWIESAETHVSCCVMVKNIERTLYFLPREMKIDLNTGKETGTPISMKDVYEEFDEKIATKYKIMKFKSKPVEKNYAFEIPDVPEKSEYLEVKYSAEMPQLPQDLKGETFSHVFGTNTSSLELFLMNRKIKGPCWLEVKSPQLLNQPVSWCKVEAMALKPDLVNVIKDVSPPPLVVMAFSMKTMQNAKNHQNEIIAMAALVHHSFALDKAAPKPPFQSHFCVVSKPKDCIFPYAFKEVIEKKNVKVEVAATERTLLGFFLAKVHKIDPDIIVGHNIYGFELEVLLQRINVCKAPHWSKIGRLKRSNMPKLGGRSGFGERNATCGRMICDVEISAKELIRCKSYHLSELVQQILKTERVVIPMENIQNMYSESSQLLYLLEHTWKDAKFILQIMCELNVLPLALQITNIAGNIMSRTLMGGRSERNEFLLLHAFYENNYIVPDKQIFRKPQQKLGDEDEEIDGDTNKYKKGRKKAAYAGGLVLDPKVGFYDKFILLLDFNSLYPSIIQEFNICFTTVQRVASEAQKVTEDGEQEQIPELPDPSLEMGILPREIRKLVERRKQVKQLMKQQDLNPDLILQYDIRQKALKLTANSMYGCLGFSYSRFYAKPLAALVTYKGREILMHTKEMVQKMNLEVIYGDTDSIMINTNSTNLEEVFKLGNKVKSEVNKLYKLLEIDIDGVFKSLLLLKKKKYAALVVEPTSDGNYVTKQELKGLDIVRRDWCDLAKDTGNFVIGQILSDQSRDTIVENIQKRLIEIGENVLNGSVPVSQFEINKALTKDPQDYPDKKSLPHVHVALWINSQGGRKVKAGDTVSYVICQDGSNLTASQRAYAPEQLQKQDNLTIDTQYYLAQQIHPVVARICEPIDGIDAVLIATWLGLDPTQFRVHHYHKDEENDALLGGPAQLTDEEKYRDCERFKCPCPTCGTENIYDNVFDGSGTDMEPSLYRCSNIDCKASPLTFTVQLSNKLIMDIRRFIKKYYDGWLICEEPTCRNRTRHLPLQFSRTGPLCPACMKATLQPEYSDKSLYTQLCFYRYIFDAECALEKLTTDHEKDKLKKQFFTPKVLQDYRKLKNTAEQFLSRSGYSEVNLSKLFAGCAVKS
# HIV-1 RT K70Q = experiment: Mutant HIV-1 RT assay K70Q; format: biochemical; conditions: Poly rI.dC [^3H]dCTP
# HIV-1 RT M184V = experiment: Mutant HIV-1 RT assay M184V; format: biochemical; conditions: Poly rI.dC [^3H]dCTP
# HIV-1 RT M184V + E138K = experiment: Mutant HIV-1 RT assay M184V + E138K; format: biochemical; conditions: Poly rI.dC [^3H]dCTP
# HIV-1 RT E138K = experiment: Mutant HIV-1 RT assay E138K; format: biochemical
# HIV-1 RT = HIV-1 RT (Human immunodeficiency virus type 1 group M subtype B, UniProt P04585); experiment: HIV-1 RT assay with homopolymeric template/primers; format: biochemical; conditions: read-out: IC50 HIV-1 RT
# HIV-1 RT V75I = experiment: Mutant HIV-1 RT assay V75I; format: biochemical; conditions: Poly rA.dT [^3H]dTTP
# HIV-1 RT F61A = experiment: Mutant HIV-1 RT assay F61A; format: biochemical
# HIV-1 RT Q151M = experiment: Mutant HIV-1 RT assay Q151M; format: biochemical
# HCMV DNA polymerase = HCMV DNA polymerase (Human cytomegalovirus, UniProt P08546); experiment: HCMV DNA polymerase enzyme assay; format: biochemical; conditions: read-out: IC50 HCMV DNA pol, calf thymus DNA
# HCMV DNA polymerase, sequence (P08546 whole entry): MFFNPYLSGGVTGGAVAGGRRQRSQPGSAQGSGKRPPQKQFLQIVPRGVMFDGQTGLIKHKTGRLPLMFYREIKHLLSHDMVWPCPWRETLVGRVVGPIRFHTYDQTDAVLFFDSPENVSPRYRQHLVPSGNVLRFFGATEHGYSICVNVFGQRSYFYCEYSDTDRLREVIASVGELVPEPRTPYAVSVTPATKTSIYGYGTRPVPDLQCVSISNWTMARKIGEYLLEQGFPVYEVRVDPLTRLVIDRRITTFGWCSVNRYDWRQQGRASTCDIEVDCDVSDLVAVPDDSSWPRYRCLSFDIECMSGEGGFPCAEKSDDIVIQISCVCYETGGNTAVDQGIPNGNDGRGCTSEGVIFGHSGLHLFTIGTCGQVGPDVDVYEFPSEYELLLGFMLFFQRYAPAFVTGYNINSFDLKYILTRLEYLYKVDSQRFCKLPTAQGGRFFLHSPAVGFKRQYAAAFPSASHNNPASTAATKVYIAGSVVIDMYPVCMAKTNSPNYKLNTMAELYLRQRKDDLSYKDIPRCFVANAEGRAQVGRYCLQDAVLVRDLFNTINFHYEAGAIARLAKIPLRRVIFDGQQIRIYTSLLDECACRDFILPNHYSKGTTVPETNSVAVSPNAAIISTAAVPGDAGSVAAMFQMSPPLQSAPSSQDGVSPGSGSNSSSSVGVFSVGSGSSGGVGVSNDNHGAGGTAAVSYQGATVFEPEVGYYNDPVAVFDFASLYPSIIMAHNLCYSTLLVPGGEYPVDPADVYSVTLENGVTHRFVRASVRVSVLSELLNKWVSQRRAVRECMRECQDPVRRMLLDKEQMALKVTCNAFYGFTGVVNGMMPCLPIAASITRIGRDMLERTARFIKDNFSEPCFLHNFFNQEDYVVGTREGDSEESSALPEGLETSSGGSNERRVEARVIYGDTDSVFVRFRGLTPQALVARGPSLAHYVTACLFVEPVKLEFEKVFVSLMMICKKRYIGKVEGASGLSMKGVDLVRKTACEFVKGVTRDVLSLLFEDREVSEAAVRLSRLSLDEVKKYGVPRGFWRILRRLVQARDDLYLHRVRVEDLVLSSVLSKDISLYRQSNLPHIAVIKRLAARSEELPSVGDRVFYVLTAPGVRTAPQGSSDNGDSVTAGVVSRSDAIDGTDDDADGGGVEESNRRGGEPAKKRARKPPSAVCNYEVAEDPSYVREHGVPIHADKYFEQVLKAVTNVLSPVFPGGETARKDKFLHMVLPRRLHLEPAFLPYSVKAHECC
# HIV-1 RT K70E = experiment: Mutant HIV-1 RT assay K70E; format: biochemical
# HSV-1 DNA polymerase = HSV-1 DNA polymerase (Human herpesvirus 1, UniProt P04293); experiment: HSV-1 DNA polymerase enzyme assay; format: biochemical; conditions: read-out: IC50 HSV-1 DNA pol, calf thymus DNA
# HSV-1 DNA polymerase, sequence (P04293 whole entry): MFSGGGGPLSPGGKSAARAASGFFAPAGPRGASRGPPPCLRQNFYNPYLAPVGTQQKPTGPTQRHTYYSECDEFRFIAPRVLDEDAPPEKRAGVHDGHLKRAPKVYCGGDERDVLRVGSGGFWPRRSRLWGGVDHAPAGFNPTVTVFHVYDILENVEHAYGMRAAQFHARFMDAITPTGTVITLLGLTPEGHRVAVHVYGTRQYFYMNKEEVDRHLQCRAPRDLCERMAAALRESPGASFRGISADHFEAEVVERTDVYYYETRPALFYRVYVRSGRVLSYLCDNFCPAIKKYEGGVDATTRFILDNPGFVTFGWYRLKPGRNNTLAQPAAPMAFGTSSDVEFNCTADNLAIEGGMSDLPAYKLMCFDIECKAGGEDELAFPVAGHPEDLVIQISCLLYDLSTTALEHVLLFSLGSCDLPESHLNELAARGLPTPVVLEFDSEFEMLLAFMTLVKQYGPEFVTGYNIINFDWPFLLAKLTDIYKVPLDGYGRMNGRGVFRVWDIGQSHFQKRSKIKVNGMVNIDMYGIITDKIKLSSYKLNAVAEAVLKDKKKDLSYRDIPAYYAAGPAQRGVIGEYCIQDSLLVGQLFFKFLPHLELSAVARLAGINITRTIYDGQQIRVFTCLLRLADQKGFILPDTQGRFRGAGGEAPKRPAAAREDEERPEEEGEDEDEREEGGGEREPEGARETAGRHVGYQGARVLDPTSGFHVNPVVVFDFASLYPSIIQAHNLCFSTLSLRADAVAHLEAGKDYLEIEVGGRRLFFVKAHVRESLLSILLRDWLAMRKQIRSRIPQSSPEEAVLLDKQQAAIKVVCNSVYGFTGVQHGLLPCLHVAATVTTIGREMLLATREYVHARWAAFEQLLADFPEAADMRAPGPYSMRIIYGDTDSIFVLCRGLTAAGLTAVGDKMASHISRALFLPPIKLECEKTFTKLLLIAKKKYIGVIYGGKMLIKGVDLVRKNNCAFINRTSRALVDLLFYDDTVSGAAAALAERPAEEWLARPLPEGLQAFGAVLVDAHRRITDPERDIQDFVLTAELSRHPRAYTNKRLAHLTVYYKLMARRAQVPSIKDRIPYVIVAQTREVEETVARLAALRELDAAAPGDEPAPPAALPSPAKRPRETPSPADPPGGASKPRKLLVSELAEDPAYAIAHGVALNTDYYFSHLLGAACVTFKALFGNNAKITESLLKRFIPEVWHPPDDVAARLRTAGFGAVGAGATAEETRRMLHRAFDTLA
# HIV-1 RT M184I = experiment: Mutant HIV-1 RT assay M184I; format: biochemical; conditions: Poly rI.dC [^3H]dCTP
# HIV-1 RT K70R = experiment: Mutant HIV-1 RT assay K70R; format: biochemical; conditions: Poly rA.dT [^3H]dTTP
# [2] = molecular target: cellular DNA polymerase β (Homo sapiens, UniProt P06746); experiment: Cellular DNA polymerase β assay; format: biochemical; conditions: read-out: IC50 β DNA pol; calf thymus DNA, [^3H]dGTP
# HIV-1 RT K65R = experiment: Mutant HIV-1 RT assay K65R; format: biochemical
# HIV-1 RT M184V + Y115F = experiment: Mutant HIV-1 RT assay M184V + Y115F; format: biochemical; conditions: Poly rI.dC [^3H]dCTP
# HIV-1 RT M184I + E138K = experiment: Mutant HIV-1 RT assay M184I + E138K; format: biochemical
structure (smiles),measurement,setting,value
Cn1c2ccccc2c2c1cc(C#N)c(=O)n2-c1ccc([N+](=O)[O-])cc1 [INDOPY],Fold-resistance compared to wild-type,HIV-1 RT L100I,3.9 fold
same,IC50,[1],> 100 µM
same,Fold-resistance compared to wild-type,HIV-1 RT K70Q,0.7 fold
same,Fold-resistance compared to wild-type,HIV-1 RT M184V,> 6.7 fold
same,Fold-resistance compared to wild-type,HIV-1 RT M184V + E138K,1.0 fold
same,Fold-resistance compared to wild-type,HIV-1 RT E138K; Poly rA.dT [^3H]dTTP,0.7 fold
same,Fold-resistance compared to wild-type,HIV-1 RT E138K; Poly rI.dC [^3H]dCTP,1.0 fold
same,IC50,"HIV-1 RT; poly rA.dT, [^3H]dTTP",0.26 ± 0.07 µM
same,IC50,"HIV-1 RT; poly rC.dG, [^3H]dGTP",> 200 µM
same,Fold-resistance compared to wild-type,HIV-1 RT V75I,1.0 fold
same,Fold-resistance compared to wild-type,HIV-1 RT F61A; Poly rA.dT [^3H]dTTP,2.2 fold
same,Fold-resistance compared to wild-type,HIV-1 RT F61A; Poly rI.dC [^3H]dCTP,1.9 fold
same,Fold-resistance compared to wild-type,HIV-1 RT Q151M; Poly rA.dT [^3H]dTTP,1.6 fold
same,Fold-resistance compared to wild-type,HIV-1 RT Q151M; Poly rI.dC [^3H]dCTP,0.2 fold
same,IC50,HCMV DNA polymerase; [^3H]dGTP,> 100 µM
same,IC50,HCMV DNA polymerase; [^3H]dTTP,> 100 µM
same,Fold-resistance compared to wild-type,HIV-1 RT K70E; Poly rA.dT [^3H]dTTP,1.5 fold
same,Fold-resistance compared to wild-type,HIV-1 RT K70E; Poly rI.dC [^3H]dCTP,0.6 fold
same,IC50,HSV-1 DNA polymerase; [^3H]dGTP,> 100 µM
same,IC50,HSV-1 DNA polymerase; [^3H]dTTP,> 100 µM
same,Fold-resistance compared to wild-type,HIV-1 RT Y181C; Poly rA.dT [^3H]dTTP,1.3 fold
same,Fold-resistance compared to wild-type,HIV-1 RT Y181C; Poly rI.dC [^3H]dCTP,≥ 6.7 fold
same,Fold-resistance compared to wild-type,HIV-1 RT M184I,≥ 6.7 fold
same,Fold-resistance compared to wild-type,HIV-1 RT K70R,0.6 fold
same,IC50,[2],> 100 µM
same,Fold-resistance compared to wild-type,HIV-1 RT K103N; Poly rA.dT [^3H]dTTP,0.6 fold
same,Fold-resistance compared to wild-type,HIV-1 RT K103N; Poly rI.dC [^3H]dCTP,1.1 fold
same,Fold-resistance compared to wild-type,HIV-1 RT K65R; Poly rA.dT [^3H]dTTP,1.0 fold
same,Fold-resistance compared to wild-type,HIV-1 RT K65R; Poly rI.dC [^3H]dCTP,1.3 fold
same,Fold-resistance compared to wild-type,HIV-1 RT M184V + Y115F,≥ 6.7 fold
same,Fold-resistance compared to wild-type,HIV-1 RT V106A; Poly rA.dT [^3H]dTTP,1.0 fold
same,Fold-resistance compared to wild-type,HIV-1 RT V106A; Poly rI.dC [^3H]dCTP,0.4 fold
same,Fold-resistance compared to wild-type,HIV-1 RT M184I + E138K; Poly rA.dT [^3H]dTTP,1.1 fold
same,Fold-resistance compared to wild-type,HIV-1 RT M184I + E138K; Poly rI.dC [^3H]dCTP,0.6 fold
